Source: patent US20130059295A1 (priority 2011, published 2013)
Converted amounts (≈) assume the structure as drawn.

Legend:
[1] = test system: fatty acid biosensor plasmids pLR-rfp and pAR-rfp in fadE knockout DH1 E. coli cells; assay: microbe, parasite or virus in culture; assay type: cell-based
[2] = test system: fatty acid biosensor plasmids in DH1 fadD knockout strain; assay type: cell-based, E. coli; details: up to the addition of 1 mM oleic acid
[3] = test system: fatty acid sensing strain (pBARk-RFP and pE8a-fadR in E. coli); assay: Fatty acid biosensor pBARk-RFP with pE8a-fadR, oleic acid added to growth media (Example 3); assay type: cell-based; details: plasmid pBARk-RFP, over a broad range of oleic acid concentration, 12 hours
[4] = molecular target: FadR (Escherichia coli, UniProt P0A8V6); details: read-out: Kd of FadR binding to oleic acid; cited from earlier work
Chain of FadR (P0A8V6 whole entry): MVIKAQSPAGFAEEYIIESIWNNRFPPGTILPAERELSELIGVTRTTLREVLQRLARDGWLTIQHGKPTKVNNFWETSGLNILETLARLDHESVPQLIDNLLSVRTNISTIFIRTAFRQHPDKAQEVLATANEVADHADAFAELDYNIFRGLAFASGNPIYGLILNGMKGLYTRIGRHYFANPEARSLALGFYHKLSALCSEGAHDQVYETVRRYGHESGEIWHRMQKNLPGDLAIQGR

[5] = test system: E. coli fadBA promoter (PfadBA); details: upon the addition of 5 mM oleic acid; cited from earlier work
[6] = cited from earlier work
[7] = molecular target: HucR; details: read-out: Kd (apparent), one value printed for the listed ligands; cited from earlier work

Compound	EC50 ([1]; Escherichia coli, 12 h, read-out: apparent half maximal effective concentration (EC50)) [µM]	fluorescence change upon the addition of oleic acid ([1]; pAR-rfp, fadE knockout DH1 E. coli) [fold]	induction of RFP expression [2]	increase in fluorescence signal [3]	Kd [4] [µM]	increased expression level of PfadBA [5] [fold]	solubility limit in aqueous solution [6] [mM]	Kd [7] [µM]
CCCCCCCC/C=C\CCCCCCCC(=O)O [oleic acid]	35 to 60	60	no induction of RFP expression was detected	more than 50 fold	5	5	5 (≈ 1410 µg/mL)	
O=C(O)c1ccccc1O [salicylate]								11.6
O=c1[nH]c(=O)c2[nH]c(=O)[nH]c2[nH]1 [uric acid]								11.6
